Source: ChEMBL document CHEMBL6182898, “Design, synthesis and bioevaluation of novel hydrazide derivatives as enhancers of immunotherapy and DNA-damage response in antitumor therapy” (Eur J Med Chem, 2025)
The source made the active and inactive calls. No cut-off for these calls is given here.

What was measured:
[1] = molecular target: T1, Histone deacetylase 3 (Mus musculus) (UniProt O88895); test: In vivo inhibition of HDAC3 in mouse B16-F10 cells implanted in male C57BL/6J mouse assessed as decrease in PD-L1 level at 50 mg/kg, IG treated for 14 days consecutively by Western blot analysis; assay type: functional, organism-based; conditions: time 14.0 day
T1 sequence (whole entry): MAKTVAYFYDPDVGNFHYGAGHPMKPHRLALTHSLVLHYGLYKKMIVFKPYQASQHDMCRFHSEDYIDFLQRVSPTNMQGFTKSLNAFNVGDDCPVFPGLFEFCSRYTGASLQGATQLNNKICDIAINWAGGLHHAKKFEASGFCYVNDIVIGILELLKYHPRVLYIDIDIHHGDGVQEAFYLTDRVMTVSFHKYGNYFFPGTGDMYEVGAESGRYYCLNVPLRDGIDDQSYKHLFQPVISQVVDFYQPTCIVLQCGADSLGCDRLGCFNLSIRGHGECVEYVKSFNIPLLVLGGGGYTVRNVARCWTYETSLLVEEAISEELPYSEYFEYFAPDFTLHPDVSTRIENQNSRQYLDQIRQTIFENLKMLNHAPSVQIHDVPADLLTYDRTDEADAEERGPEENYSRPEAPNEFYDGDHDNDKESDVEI

[2] = MRT (0 to infinity) in male Sprague-Dawley rat at 2 mg/kg, iv measured for 0.083 to 12 hrs by LC-MS/MS analysis; assay type: ADME, organism-based; conditions: in vivo, time 0.083-12 hrs
[3] = molecular target: Programmed cell death 1 ligand 1 (Mus musculus) (UniProt Q9EP73); test: Induction of PD-L1 degradation in mouse B16-F10 cells assessed as increase in CTSB level at 0.313 to 10 uM incubated for 24 hrs by Western blot analysis; assay type: cell-based; conditions: dose 0.313-10 µM
B16-F10 [4] = test: Induction of antitumor immunity in mouse B16-F10 cells implanted in male C57BL/6J mouse assessed as CD3+CD8+ T cell infiltration at 25 mg/kg, IG treated for 14 days consecutively in presence of NP-19 by flow cytometry (reference value: 10 %); assay type: functional; conditions: time 14 day
4T1 [5] = test: Synergistic induction of DNA damage in mouse 4T1 cells assessed as increase in gamma-H2AX level at 1 uM incubated for 24 hrs in presence of Olaparib by Western blot analysis; assay type: functional, cell-based
[6] = Toxicity in male C57BL/6J mouse implanted with mouse B16-F10 cells assessed as histopathological damage in heart at 25 mg/kg, IG treated for 14 days consecutively in presence of NP-19 by H and E staining based analysis; assay type: organism-based; conditions: in vivo, po, 336 h, time 14 day
4T1 [7] = test: Induction of DNA damage in mouse 4T1 cells implanted in mouse assessed as decrease in PARP level at 50 mg/kg/day by immunofluorescence based analysis; assay type: functional, organism-based
4T1 [8] = test: Antitumor activity against mouse 4T1 cells implanted in mouse at 50 mg/kg/day relative to control; assay type: functional; conditions: read-out: TGI
4T1 [9] = test: Synergistic induction of DNA damage in mouse 4T1 cells implanted in mouse assessed as decrease in PARP level at 25 mg/kg/day in presence of olaparib by immunofluorescence based analysis; assay type: functional, organism-based
[10] = molecular target: T1, Histone deacetylase 3 (Mus musculus); test: In vivo inhibition of HDAC3 in mouse B16-F10 cells implanted in male C57BL/6J mouse assessed as decrease in PD-L1 level at 50 mg/kg, IG treated for 14 days consecutively by immunofluorescence based analysis; assay type: functional, organism-based; conditions: time 14.0 day
[11] = AUC (0 to infinity) in male Sprague-Dawley rat at 2 mg/kg, iv measured for 0.083 to 12 hrs by LC-MS/MS analysis; assay type: ADME, organism-based; conditions: in vivo, time 0.083-12 hrs
[12] = Toxicity in male C57BL/6J mouse implanted with mouse B16-F10 cells assessed as body weight change at 50 mg/kg, IG treated for 14 days consecutively; assay type: organism-based; conditions: in vivo, po, 336 h, time 14 day
[13] = VRT (0 to t) in male Sprague-Dawley rat at 2 mg/kg, iv measured for 0.083 to 12 hrs by LC-MS/MS analysis; assay type: ADME, organism-based; conditions: in vivo, time 0.083-12 hrs
4T1 [14] = test: Synergistic induction of DNA damage in mouse 4T1 cells assessed as decrease in PARP1 level at 1 uM incubated for 24 hrs in presence of Olaparib by Western blot analysis; assay type: functional, cell-based
[15] = Toxicity in male C57BL/6J mouse implanted with mouse B16-F10 cells assessed as histopathological damage in kidney at 25 mg/kg, IG treated for 14 days consecutively in presence of NP-19 by H and E staining based analysis; assay type: organism-based; conditions: in vivo, po, 336 h, time 14 day
4T1 [16] = test: Synergistic induction of DNA damage in mouse 4T1 cells implanted in mouse assessed as decrease in PARP level at 25 mg/kg/day in presence of olaparib by IHC analysis; assay type: functional, organism-based
[17] = molecular target: T1, Histone deacetylase 3 (Mus musculus); test: In vivo inhibition of HDAC3 in mouse B16-F10 cells implanted in male C57BL/6J mouse assessed as increase in Ac-H3 level at 50 mg/kg, IG treated for 14 days consecutively by Western blot analysis; assay type: functional, organism-based; conditions: time 14.0 day
[18] = AUC (0 to infinity) in male Sprague-Dawley rat at 20 mg/kg, po measured for 0.083 to 12 hrs by LC-MS/MS analysis; assay type: ADME, organism-based; conditions: in vivo, time 0.083-12 hrs
[19] = VRT (0 to infinity) in male Sprague-Dawley rat at 2 mg/kg, iv measured for 0.083 to 12 hrs by LC-MS/MS analysis; assay type: ADME, organism-based; conditions: in vivo, time 0.083-12 hrs
[20] = VRT (0 to infinity) in male Sprague-Dawley rat at 20 mg/kg, po measured for 0.083 to 12 hrs by LC-MS/MS analysis; assay type: ADME, organism-based; conditions: in vivo, time 0.083-12 hrs
4T1 [21] = test: Synergistic induction of DNA damage in mouse 4T1 cells implanted in mouse assessed as increase in gamma-H2AX level at 25 mg/kg/day in presence of olaparib by immunofluorescence based analysis; assay type: functional, organism-based
[22] = AUMC (0 to t) in male Sprague-Dawley rat at 20 mg/kg, po measured for 0.083 to 12 hrs by LC-MS/MS analysis; assay type: ADME, organism-based; conditions: in vivo, time 0.083-12 hrs
[23] = Clearance in male Sprague-Dawley rat at 2 mg/kg, iv measured for 0.083 to 12 hrs by LC-MS/MS analysis; assay type: ADME, organism-based; conditions: in vivo, time 0.083-12 hrs
4T1 [24] = test: Induction of DNA damage in mouse 4T1 cells assessed as decrease in PARP1 level at 2 uM incubated for 24 hrs by Western blot analysis; assay type: functional, cell-based
[25] = AUMC (0 to infinity) in male Sprague-Dawley rat at 20 mg/kg, po measured for 0.083 to 12 hrs by LC-MS/MS analysis; assay type: ADME, organism-based; conditions: in vivo, time 0.083-12 hrs
B16-F10 [26] = test: Induction of antitumor immunity in mouse B16-F10 cells implanted in male C57BL/6J mouse assessed as CD3+CD4+ T cell infiltration at 25 mg/kg, IG treated for 14 days consecutively in presence of NP-19 by flow cytometry (reference value: 7.4 %); assay type: functional; conditions: time 14 day
[27] = molecular target: Programmed cell death 1 ligand 1 (Mus musculus, UniProt Q9EP73); test: Induction of PD-L1 degradation in mouse B16-F10 cells incubated for 24 hrs by Western blot analysis; assay type: cell-based
4T1 [28] = test: Synergistic antitumor activity against mouse 4T1 cells implanted in mouse at 25 mg/kg/day in presence of olaparib relative to control; assay type: functional; conditions: read-out: TGI

Programmed cell death 1 ligand 1 (Mus musculus), sequence (Q9EP73 whole entry): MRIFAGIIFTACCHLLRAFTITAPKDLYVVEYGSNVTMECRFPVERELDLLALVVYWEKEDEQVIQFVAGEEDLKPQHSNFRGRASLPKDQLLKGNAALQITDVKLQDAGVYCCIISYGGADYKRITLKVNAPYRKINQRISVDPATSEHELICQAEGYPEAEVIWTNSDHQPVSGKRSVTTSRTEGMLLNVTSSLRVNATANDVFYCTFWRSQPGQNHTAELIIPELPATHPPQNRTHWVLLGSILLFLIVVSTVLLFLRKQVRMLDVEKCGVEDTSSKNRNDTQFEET
Programmed cell death 1 ligand 1, sequence (Q9EP73 whole entry): as above

inhibition [1]: Active
MRT inf [2]: 22.2 min
inhibition [10]: Active
AUC(0-inf) [11]: 658 ng·h/mL
VRT(t) [13]: 0.55 h²
inhibition [17]: Active
AUC(0-inf) [18]: 32.1 ng·h/mL
VRT [19]: 0.98 h²
VRT [20]: 14.7 h²
AUMCt [22]: 77.04 hr.hr.ug/L
clearance [23]: 53.8 mL/min/kg
AUMC [25]: 97.74 hr.hr.ug/L
Structure (SMILES): CCCNNC(=O)CCCCCCNC(=O)c1cnc(-c2ccc(NC(=O)OC(C)(C)C)cc2)s1
Activity [3]: Active
Activity (B16-F10 [4]): 38%
Activity (4T1 [5]): Active
Activity [6]: Non-toxic
Activity (4T1 [7]): Active
inhibition in vivo at 50 mg/kg/day (4T1 [8]): 64%
Activity (4T1 [9]): Active
Activity [12]: Non-toxic
Activity (4T1 [14]): Active
Activity [15]: Non-toxic
Activity (4T1 [16]): Active
Activity (4T1 [21]): Active
Activity (4T1 [24]): Active
Activity (B16-F10 [26]): 28%
DC50 [27]: 4.17 µM
inhibition in vivo at 25 mg/kg/day (4T1 [28]): 88%
